Data set [1] relates to sorbitol accumulation in the sciatic nerve of streptozotocinized (i.e., diabetic) rats. Put plainly: sorbitol accumulation in the sciatic nerve of streptozotocinized (diabetic) rats. Format: in vivo. How it is done:
(§1) The activity of the compounds of the present invention, as agents for the control of chronic diabetic complications, is determined by their ability to successfully pass one or more of the following standard biologically and/or pharmacological tests, viz., (1) measuring their ability to reduce or inhibit sorbitol accumulation in the sciatic nerve of acutely streptozotocinized (i.e., diabetic) rats; (2) measuring their ability to reverse already-elevated sorbitol levels in the sciatic nerve and lens of chronic streptozotocin-induced diabetic rats; (3) measuring their ability to prevent or inhibit galactitol formation in the lens of acutely galactosemic rats, and (4) measuring their ability to delay cataract formation and reduce the severity of lens opacities in chronic galactosemic rats.
The final product of Example 1, viz., 3',4'-dihydro-spiro-[imidazolidine-4,1'(2'H)naphthalene]-5-one, was tested for its ability to reduce or inhibit sorbitol accumulation in the sciatic nerve of streptozotocinized (i.e., diabetic rats) by the procedure essentially described in U.S. Pat. No. 3,821,383. In the present study, the amount of sorbitol accumulation in the sciatic nerves was measured 27 hours after the induction of diabetes. The compound was then administered orally at 25 mg./kg. at intervals of 4, 8 and 24 hours after the administration of streptozotocin. The results obtained in this manner are clearly presented in terms of the percent inhibition (%) afforded by the test compound as compared to the case where no compound was administered (i.e., the control or untreated animal where sorbitol levels normally rise from approximately […]. tissue to as high as 400 mM/g. tissue in the 27-hour test period).

Data set [2] relates to galactitol levels in the lens of galactosemic subjects. Put plainly: galactitol levels in the lens of galactosemic subjects. Format: in vivo, rats. Particulars: summary statement, no dose given. How it is done:
as §1

For `O=C1NCNC12CCCc1ccccc12` (stereo not shown) [Example 1, 3',4'-dihydro-spiro-[imidazolidine-4,1'(2'H)naphthalene]-5-one], the “percent inhibition of sorbitol accumulation in the sciatic nerve” value in data set [1] (diabetic rats, oral 25 mg./kg. at 4, 8 and 24 hours after streptozotocin, sorbitol measured 27 hours after induction of diabetes, vs untreated control) was 52%. In addition, the “signs of toxic side effects” value in data set [1] (diabetic rats, oral route, dose level of 25 mg./kg.) is “without showing any substantial signs of toxic side effects”. Also, the “lowering sorbitol levels in the lens and sciatic nerve of diabetic subjects” value in data set [1] (summary statement, no dose given) is reported as “remarkably effective”. For the same compound, the “lowering galactitol levels in the lens of galactosemic subjects” value in data set [2] is listed as “remarkably effective”.

The values above are taken from patent publication US4283409A, “Imidazolone derivatives” (Pfizer Inc., priority 1979, dated 1981).
